From patent US20200206198A1, “CFTR CHANNEL ACTIVATOR FOR USE IN THE TREATMENT AND/OR PREVENTION OF GLUTEN SENSITIVITY CONDITIONS” (priority 2017, published 2020)

Experiments:
[1] = system: recombinant human NBD1 (rhNBD1); assay: Surface plasmon resonance peptide-protein interaction; type: binding
Description: Peptide-protein interactions were studied using a Biacore™ T100 (GE Healthcare) instrument. hrNBD1 domain or the indicated biotinylated peptides were immobilized by thiol coupling on a CMS (series S) sensor chip to a final density of 2000 resonance units (RU) or by biotin-streptavidin capture on a SA (series S) sensor chip to a final density of 250 RU, respectively. A flow cell with no immobilized protein or peptide was used as control. Binding analysis was carried out at 20° C. in a running buffer consisting of 10 mM HEPES, pH 7.4, 150 mM NaCl, 0.05% (v/v) Tween-20, 2 mM ATP, 5 mM MgCl2, 1 mM DTT applying a flow rate of 20 μl/min. For each experiment a Biacore™ method program was used. It included a series of three start up injections (running buffer), zero control (running buffer) and different concentrations of ligand. […] Each sensorgram (time-course of the surface plasmon resonance signal) was corrected for the response obtained in the control flow cell and normalized to baseline. Data were analysed using the 2.0.3 BIAevaluation software (GE Healthcare). At least three independent experiments for each analysis were performed.
FIG. 2: a, Protein-Protein docking and Molecular Dynamics of P31-43 (violet) bound to NBD1 (orange). Left side: general view of P31-43 and NBD1 interaction. Upper right: detailed interaction pattern, highlighting the most important amino acids. Lower right: in silico NBD1/P31-43 complex compared to the original crystallographic positions of Tip 401 and ATP. b, Graphical view of the in silico sampling percentage of P31-43 against NBD1/NBD2 (left 10 panel), and of P31-43/4QA (4QA) against NBD1 (right panel). c-d, Surface plasmon resonance (SPR) analysis of rhNBD1 binding to P31-43 and P57-68 biotinylated peptides immobilized on SA sensor chip (c) and of increasing concentrations of P31-43 and P57-68 peptides 15 on rhNBD1 covalently bound to the CMS sensor chip (d).

[2] = system: rhNBD1 and its double mutants F400A/E403A and P439A/P477A; assay: Native polyacrylamide electrophoresis (BN-PAGE) of biotinylated peptide with rhNBD1; type: binding, human
Description: Peptide-protein interactions were further studied exploiting a different biochemical strategy: recombinant NBD1, both wild type and/or its mutants, were incubated at 4° C. for 30′ in 40 mM Tris pH 7.5 in the presence of the biotinylated P31-43 peptide unless otherwise indicated and resolved in native conditions by BN-PAGE (Novex, Invitrogen). The complexes were then blotted onto PVDF membrane in accordance with the manufacturer's instructions and the interacting partners were detected with streptavidin-HRP antibody (PerkinElmer).
e-f, Blue native PAGE western blotting of P31-43 and P57-68 biotinylated peptides in the presence of rhNBD1 (e), and of WT and double NBD1 mutants in the presence of biotinylated P31-43 (0. g, SPR analysis of 4QA peptide on rhNBD1 covalently bound to CMS sensor chip. h-i, treatment of Caco-2 cells with P31-43 or P31-43 modified in different Q or P positions. (h) Assessment in Ussing chambers of CFTR-dependent Cl^− secretion measured by forskolin-induced (Fsk) increase of the chloride current (Isc (μA/cm^2); quantification of the peak CFTR Inhibitor 172 (CFTRinh172)-sensitive Isc (ΔIsc). (i) Assessment of iodide efflux by SPQ fluorescent probe upon stimulation with forskolin (Fsk) expressed as percentage of CFTR function in the presence or absence of peptide challenge. […]

α-gliadin peptide LGQQQPFPPQQPY (SEQ ID 1), induces an enterocyte stress response (P31-43 sequence of alpha-gliadin)
interaction with rhNBD1 in the flow phase ([1]; SPR, peptide immobilized on sensor chip): confirmed the predicted interaction
SPR signal on immobilized rhNBD1 ([1]; rhNBD1 immobilized on chip, different peptide concentrations): yielded a dose-dependent signal
binding to native rhNBD1 [2]: bound to rhNBD1
binding to rhNBD1 double mutants F400A/E403A and P439A/P477A [2]: attenuated for both rhNBD1 mutants
